Legend:
LDL = LDL oxidation by copper, conjugated diene formation (OD 234 nm); assay type: biochemical; conditions: 10^−4 M; for LDL oxidation rate (rate of conjugated diene formation): copper alone 3 nmol/min/mg of LDL; for increase in the lag phase: relative to copper alone; for decrease in the maximum amount of conjugated dienes formed: copper alone 496 nmol per mg of LDL
Description: Oxidation of LDL is an important modification which plays a major role in the onset and development of atherosclerosis (Jurgens, Hoff et al. 1987). […] Unless otherwise indicated, all reagents were from Sigma (St Quentin, France).
LDL were prepared as described by Lebeau et al. (Lebeau, Furman et al. 2000). The solutions of the test compounds were prepared at 10^−2 M in ethanol and diluted in PBS so that the final concentration ranged from 0.1 to 100 μM with a total ethanol concentration of 1% (VN).
Before oxidation, EDTA was removed from the LDL preparation by dialysis. The oxidation reaction was then carried out at 30° C. by adding 100 μl of 16.6 μM CuSO4 to 800 μl of LDL (125 μg protein/ml) and 100 μl of a test compound solution. The formation of dienes, the species to be followed, was measured by the optical density at 234 nm in the samples treated with the compounds in the presence or absence of copper. Optical density at 234 nm was measured every 10 minutes for 8 hours on a thermostated spectrophotometer (Kontron Uvikon 930). The analyses were carried out in triplicate. A compound was considered to have antioxidant activity when it shifted the lag phase latency relative to the control sample. […] FIG. 4 presents an example of the results obtained with the inventive compounds.

PPARα = molecular target: T1, PPARα (Homo sapiens, UniProt Q07869); test: Gal4/PPARα transactivation system in HepG2 cells (luciferase reporter); assay type: cell-based; conditions: HepG2 cells transfected with Gal4/PPARα plasmids, 24 h
T1 construct: expressed in transfected cells; host or cells: HepG2
T1 sequence (Q07869 239-466 limits assumed): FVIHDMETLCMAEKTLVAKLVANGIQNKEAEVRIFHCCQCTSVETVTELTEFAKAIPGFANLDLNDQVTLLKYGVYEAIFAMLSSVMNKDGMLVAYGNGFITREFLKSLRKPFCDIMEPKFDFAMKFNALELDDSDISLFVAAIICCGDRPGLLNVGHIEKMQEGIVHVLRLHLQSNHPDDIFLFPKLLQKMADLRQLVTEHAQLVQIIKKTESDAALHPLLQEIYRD
Description: PPAR activation was tested in vitro in RK13 fibroblast cell lines or in a hepatocyte line HepG2 by measuring the transcriptional activity of chimeras composed of the DNA binding domain of the yeast gal4 transcription factor and the ligand binding domain of the different PPARs. The example below is given for HepG2 cells.
HepG2 cells were from ECACC (Porton Down, UK) and were grown in DMEM medium supplemented with 10% (VN) fetal calf serum, 100 U/ml penicillin (Gibco, Paisley, UK) and 2 mM L-glutamine (Gibco, Paisley, UK). The culture medium was changed every two days. Cells were kept at 37° C. in a humidified 95% air/5% CO2 atmosphere.
The plasmids pG5TkpGL3, PRL-CMV, pGal4-hPPARα, pGal4-hPPARγ and pGal4-f have been described by Raspe et al. (Raspe, Madsen et al. 1999). The pGal4-mPPARα and pGal4-hPPARβ constructs were obtained by cloning PCR-amplified DNA fragments corresponding to the DEF domains of the mouse PPARα and […] nuclear receptors, respectively, into the pGal4-f vector.
HepG2 cells were seeded in 24-well culture dishes at 5×10^4 cells/well and transfected for 2 hours with the reporter plasmid pG5TkpGL3 (50 ng/well), the expression vectors pGal4-f, pGal4-mPPARα, pGal4-hPPARα, pGal4-hPPARγ, or pGal4-hPPARβ (100 ng/well) and the transfection efficiency control vector pRL-CMV (1 ng/well) according to the previously described protocol (Raspe, Madsen et al. 1999), then incubated for 36 hours with the test compounds. At the end of the experiment, the cells were lysed (Gibco, Paisley, UK) and luciferase activity was determined with a Dual-Luciferase™ Reporter Assay System kit (Promega, Madison, Wis., USA) according to the supplier's instructions. The protein content of the cell extracts was then measured with the Bio-Rad Protein Assay kit (Bio-Rad, Munich, Germany) as directed by the supplier. […] FIG. 3 gives an example of the results obtained with the inventive compounds.
FIG. 3: HepG2 cells transfected with Gal4/PPARα plasmids were incubated with different concentrations (5, 15, 50 and 100 μM) of the inventive comopunds (Ex 2a, Ex 4a, Ex 4p, Ex 5a, Ex 7 and Ex 11) for 24 h and with different concentrations of the vehicle (PC) noted 1, 2, 3, 4 as controls for the 5, 15, 50 and 100 μM concentrations of the inventive compounds (according to the 4:1 (m/m) ratio described in example 2 (Method of preparation of the inventive compounds for in vitro studies)). The results are expressed as the induction factor (luminescent signal of treated cells divided by luminescent signal of untreated cells) after the different treatments. […] The induction factors for inventive compound Ex 4p were 35 at 100 μM, 44 at 50 μM, 36 at 15 μM and 24 at 5 μM. The induction factors for compound Ex 5a were 32 at 100 μM, 34 at 50 μM, 15 at 15 μM and 4 at 5 μM. Finally, inventive compound Ex 7 induced a 19-fold induction at 100 μM, 19 at 50 μM, 7 at 15 μM and 1.5 at 5 μM. In contrast, when the cells were incubated with the vehicle (PC liposome), no significant induction was observed.

Row | melting point | induction factor (luminescent signal of treated cells divided by luminescent signal of untreated cells) (PPARα; 5 μM) [fold] | induction factor (luminescent signal of treated cells divided by luminescent signal of untreated cells) (PPARα; 15 μM) [fold] | induction factor (luminescent signal of treated cells divided by luminescent signal of untreated cells) (PPARα; 50 μM) [fold] | induction factor (luminescent signal of treated cells divided by luminescent signal of untreated cells) (PPARα; 100 μM) [fold] | Compound | LDL oxidation rate (rate of conjugated diene formation) (LDL) | increase in the lag phase (LDL) [%] | decrease in the maximum amount of conjugated dienes formed (LDL) [%] | lag phase for conjugated diene formation (LDL; copper alone 104 minutes) [min]
1 | 224 °C (dec.) |  |  |  |  | CCCCCCCCCCCCCCCC(=S)OC(CN)CN.Cl.Cl |  |  |  | 
2 |  |  |  |  |  | 1,2-(dipalmitoyloxy)-3-tetradecylthioacetylaminopropane [Ex 9] | did not significantly alter | 33 |  | 
3 |  | 17 | 31 | 41 | 62 | CCCCCCCCCCCCCCSCC(=O)OCC(O)CO (stereo not drawn) [Ex 2a, 1-tetradecylthioacetylglycerol] | did not significantly alter | 67 |  | 
4 |  |  |  |  |  | CCCCCCCCCCCCCCCC(=O)OCC(COC(=O)CCCCCCCCCCCCCCC)OC(=O)CSCCCCCCCCCCCCCC [Ex 4g, 1,3-dipalmitoyl-2-tetradecylthioacetylglycerol] | 1.8 nmol/min/mg of LDL | 170 | 31 | 282
5 |  |  |  |  |  | CCCCC/C=C\C/C=C\CCCCCCCC(=O)OCC(COC(=O)CCCCCCC/C=C\C/C=C\CCCCC)OC(=O)CSCCCCCCCCCCCCCC [Ex 4h, 1,3-dilinoleoyl-2-tetradecylthioacetylglycerol] | 2.5 nmol/min/mg of LDL | 43 | 24 | 
6 |  |  |  |  |  | CCCCCCCCCCCCCCCC(=O)OC(COC(=O)CSCCCCCCCCCCCCCC)COC(=O)CSCCCCCCCCCCCCCC [Ex 4o, 1.3-ditetradecylthioacetyl-2-palmitoyl-glycerol] | did not significantly alter | 37 |  | 
7 |  | 24 | 36 | 44 | 35 | CCCCCCCCCCCCCCSCC(=O)OC(COC(C)=O)COC(C)=O [Ex 4p, 1,3-diacetyl-2-tetradecylthioacetylglycerol] |  |  |  | 
8 |  | 4 | 15 | 34 | 32 | CCCCCCCCCCCCCCSCC(=O)NC(CO)CO [Ex 5a, 2-tetradecylthioacetamidopropane-1.3-diol] |  |  |  | 
9 |  | 1.5 | 7 | 19 | 19 | CCCCCCCCCCCCCCSCC(=O)NCC(O)CO (stereo not drawn) [Ex 7, 3-(tetradecylthioacetylamino)propane-1,2-diol] |  |  |  | 

Source: US20060154984A1, “Therapeutic use of acyl glycerols and the nitrogen- and sulphur- containing analogues thereof” (priority 2003, published 2006)
